Test results from patent US8481738B2, “Gonadotropin-releasing hormone receptor antagonists and methods relating thereto” (Neurocrine Biosciences, Inc., priority 2007, dated 2013).

Each molecule was assayed against T1, human GnRH receptor (Homo sapiens, UniProt P30968) (assay: Peptide competition radioligand binding displacement assay, human GnRH receptor membranes). Details: one or more of the peptide competition human receptor binding assays.
T1 construct: expressed in transfected cells; host or cells: RBL cells, stably transfected (in general)
T1 sequence (P30968 1-328): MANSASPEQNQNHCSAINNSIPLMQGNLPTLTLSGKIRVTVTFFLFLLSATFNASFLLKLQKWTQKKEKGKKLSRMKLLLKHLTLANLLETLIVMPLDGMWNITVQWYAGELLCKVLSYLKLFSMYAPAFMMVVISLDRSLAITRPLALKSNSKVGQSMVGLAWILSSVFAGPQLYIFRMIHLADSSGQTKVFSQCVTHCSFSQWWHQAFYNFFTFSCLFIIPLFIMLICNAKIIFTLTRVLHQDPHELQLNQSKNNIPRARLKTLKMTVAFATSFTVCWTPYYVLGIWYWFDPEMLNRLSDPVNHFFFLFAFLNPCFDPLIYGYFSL
Experimental: cDNA's of human, rhesus macaque, rabbit, dog and rat GnRH receptors are cloned into pcDNA3.1 (+) (Invitrogen). Full length sequences of all receptors are confirmed by DNA sequencing. HEK 293, CHO, COS-7, or rat basophilic leukemia (RBL) cells are stably transfected with human, rat, or macaque GnRH receptors and high expressing single cell clones (Bmax≧0.4 pMol/mg membrane protein) are isolated and maintained in Dulbecco's Modified Eagles Medium (DMEM) with following supplements: 10 mM HEPES; 2 mM L-glutamine; 1 mM Sodium Pyruvate; 50 U/mL penicillin, 50 μg/mL streptomycin; 10% Heat-inactivated Fetal Bovine Serum and 200 μg/mL Geneticin (G-418-Sulfate). Non-essential amino acids (0.1 mM) (Irvine Scientific; Santa Ana, Calif.) are included in the RBL cell media.
In general, initial peptide radioligand binding assays are carried out using membranes from stably transfected RBL cells. RBL stable clones are found to more consistently express high levels of GnRH receptor and are therefore used for subsequent binding studies as well as Ca^++ flux and inositol phosphate accumulation assays. Transiently transfected COS-7 cells are used for preparation of membranes containing GnRH receptors from multiple species (as well as those of mutant receptors for other studies) because of the convenience for rapidly analyzing multiple receptors.
HEK293 cells stably transfected with the human GnRH receptor are grown for two days after achieving confluence then are harvested by striking tissue culture flasks against a firm surface. Cells are collected by centrifugation at 1000 g for 5 minutes. Cell pellets are resuspended in 5% sucrose and homogenized using a polytron homogenizer for two 15 second homogenization steps. Cell homogenates are then centrifuged for 5 minutes at 3000 g to remove nuclei and the supernatant subsequently centrifuged for 30 minutes at 44,000 g to collect the membrane fraction. The membrane pellet is resuspended in GnRH binding buffer (10 mM HEPES, pH 7.5, 150 mM NaCl and 0.1% BSA) and aliquots immediately snap-frozen in liquid nitrogen and stored at −80° C. Protein content of the membrane suspension is determined using the Bio-Rad protein assay kit (Bio-Rad).
RBL cells stably transfected with the human GnRH receptor are grown to 80% confluency prior to harvesting. The cells are incubated at 37° C. for 10 min in 0.5 mM EDTA/PBS (Ca^++, Mg^++ free), and are dislodged from the plate by gentle rapping of the flasks. Cells are collected and pelleted by centrifugation at 1000 g for 5 minutes. Cell pellets are resuspended in buffer (DPBS supplemented with 10 mM MgCl2, 2 mM EGTA, pH=7.4), and cell lysis is performed using a pressure cell and applying N2 at a pressure of 900 psi for 30 min at 4° C. Unbroken cells and larger debris were removed by centrifugation at 1200 g for 10 min at 4° C. The cell membrane supernatant is then centrifuged at 45,000 g and the resulting membrane pellet is resuspended in assay buffer and homogenized on ice using a tissue homogenizer. Protein concentrations are determined using the Coomassie Plus Protein Reagent kit. Membranes are aliquoted and stored at −80° C. until ready for use.
COS-7 cells transiently transfected with GnRH receptors from different species (human, macaque, dog, rabbit, rat) or mutant GnRH receptors are prepared by bulk electroporation. COS-7 cells are obtained from American Type Cell Culture (Manassas, Va.) and are maintained in Dulbeccos's modified Eagle's medium (DMEM) (MediaTech Inc., Herndon, Va.) containing 10% fetal bovine serum, 10 mM HEPES, 2 mM L-glutamine, 1 mM sodium pyruvate, 50 U/mL penicillin, 50 μg/mL streptomycin. COS-7 cells are seeded in 500 cm^2 tissue culture plates and grown to confluency prior to cell transfection. […]

SMILES	Ki
COc1ccccc1N(C)C(=O)c1ccc(Cl)c(-c2ncc(Cl)cc2Cl)c1 [19-2, 4-chloro-3-(3,5-dichloro-pyridin-2-yl)-N-(2-methoxy-phenyl)-N-methyl-benzamide]	≤ 100 nM
CN(C(=O)c1ccc(Cl)c(-c2ncc(Cl)cc2Cl)c1)c1cccc(F)c1 [19-3]	≤ 100 nM
COC(=O)c1ccccc1N(C)C(=O)c1ccc(Cl)c(-c2ncc(Cl)cc2Cl)c1 [19-6]	≤ 100 nM
COc1c(Cl)cccc1N(C)C(=O)c1ccc(Cl)c(-c2ncc(Cl)cc2Cl)c1 [19-7]	≤ 100 nM
Cc1cccc(C)c1N(C)C(=O)c1ccc(Cl)c(-c2ncc(Cl)cc2Cl)c1 [19-8]	≤ 100 nM
COc1cccc(N(C)C(=O)c2ccc(Cl)c(-c3ncc(Cl)cc3Cl)c2)c1 [19-9]	≤ 100 nM
Cc1cccc(N(C)C(=O)c2ccc(Cl)c(-c3ncc(Cl)cc3Cl)c2)c1C [19-10]	≤ 100 nM
Cc1ccccc1N(C)C(=O)c1cc(-c2cnc(C(F)(F)F)cc2C#N)c(Cl)cc1OCCCC(=O)O [20-1, 4-[5-Chloro-4-(4-cyano-6-trifluoromethyl-pyridin-3-yl)-2-(methyl-o-tolyl-carbamoyl)-phenoxy]-butyric acid]	≤ 100 nM
Cc1ccccc1N(C)C(=O)c1cc(-c2cnc(Cl)cc2Cl)c(Cl)cc1OCCCC(=O)O [20-2]	≤ 100 nM
Cc1ccccc1N(C)C(=O)c1cc(-c2nc3ccccc3cc2C#N)c(Cl)cc1OCCCC(=O)O [20-3]	≤ 100 nM
COc1cccc(C)c1N(C)C(=O)c1cc(-c2cnc(C(F)(F)F)cc2C#N)c(Cl)cc1OCCCCO [21-1, 4-Chloro-5-(4-cyano-6-trifluoromethyl-pyridin-3-yl)-2-(4-hydroxy-butoxy)-N-(2-methoxy-6-methyl-phenyl)-N-methyl-benzamide]	≤ 100 nM
COc1cccc(C)c1N(C)C(=O)c1cc(-c2cnc(C#N)cc2C)c(Cl)cc1OCCCCO [21-2]	≤ 100 nM
COc1cccc(C)c1N(C)C(=O)c1cc(-c2nc3ccccc3cc2C#N)c(Cl)cc1OCCCCO [21-3]	≤ 100 nM
Cc1cccc(C)c1N(C)C(=O)c1cc(-c2cnc(C(F)(F)F)cc2C#N)c(Cl)cc1OCCCCO [21-4]	≤ 100 nM
Cc1cc(C#N)ncc1-c1cc(C(=O)N(C)c2c(C)cccc2C)c(OCCCCO)cc1Cl [21-5]	≤ 100 nM
Cc1cccc(C)c1N(C)C(=O)c1cc(-c2nc3ccccc3cc2C#N)c(Cl)cc1OCCCCO [21-6]	≤ 100 nM
COc1cccc(C)c1N(C)C(=O)c1cc(-c2cnc(C(F)(F)F)cc2C#N)c(Cl)cc1OCCO [21-7]	≤ 100 nM
COc1cccc(C)c1N(C)C(=O)c1cc(-c2cnc(C(F)(F)F)cc2C#N)c(Cl)cc1OCCCO [21-8]	≤ 100 nM
COc1cccc(C)c1N(C)C(=O)c1cc(-c2cnc(C(F)(F)F)cc2C#N)c(Cl)cc1OCCCC(=O)O [22-1, 4-{5-Chloro-4-(4-cyano-6-trifluoromethyl-pyridin-3-yl)-2-[(2-methoxy-6-methyl-phenyl)-methyl-carbamoyl]-phenoxy}-butyric acid]	≤ 100 nM
COc1cccc(C)c1N(C)C(=O)c1cc(-c2cnc(C#N)cc2C)c(Cl)cc1OCCCC(=O)O [22-2]	≤ 100 nM
COc1cccc(C)c1N(C)C(=O)c1cc(-c2nc3ccccc3cc2C#N)c(Cl)cc1OCCCC(=O)O [22-3]	≤ 100 nM
Cc1cccc(C)c1N(C)C(=O)c1cc(-c2cnc(C(F)(F)F)cc2C#N)c(Cl)cc1OCCCC(=O)O [22-4]	≤ 100 nM
Cc1cccc(C)c1N(C)C(=O)c1cc(-c2nc3ccccc3cc2C#N)c(Cl)cc1OCCCC(=O)O [22-6]	≤ 100 nM
Cc1cc(C#N)ncc1-c1cc(C(=O)N(C)c2c(C)cccc2C)c(OCCCC(=O)O)cc1Cl [22-8]	≤ 100 nM
COc1cccc(C)c1N(C)C(=O)c1cc(-c2cnc(C(F)(F)F)cc2C#N)c(Cl)cc1OCC(=O)O [22-9]	≤ 100 nM
COc1cccc(C)c1N(C)C(=O)c1cc(-c2cnc(C(F)(F)F)cc2C#N)c(Cl)cc1OCCC(=O)O [22-10]	≤ 100 nM
COc1cccc(C)c1N(C)C(=O)c1cc(-c2cnc(C(F)(F)F)cc2C#N)c(Cl)cc1OCCCN [23-1, 2-(3-Amino-propoxy)-4-chloro-5-(4-cyano-6-trifluoromethyl-pyridin-3-yl)-N-(2-methoxy-6-methyl-phenyl)-N-methyl-benzamide]	≤ 100 nM

Next, values leading:

Ki	SMILES
≤ 100 nM	COc1ccccc1N(C)C(=O)c1ccc(Cl)c(-c2cnc(C(N)=O)cc2C)c1 [24-2, 5-{2-chloro-5-[(2-methoxy-phenyl)-methyl-carbamoyl]-phenyl}-4-methyl-pyridine-2-carboxylic acid amide]
≤ 100 nM	COc1cccc(C)c1N(C)C(=O)c1ccc(Cl)c(-c2cnc(SC)cc2C)c1 [26-1, 4-Chloro-N-(2-methoxy-6-methyl-phenyl)-N-methyl-3-(4-methyl-6-methyl-sulfanylpyridin-3-yl)-benzamide]
≤ 100 nM	COc1ccccc1N(C)C(=O)c1ccc(Cl)c(-c2c(Cl)cc(Cl)c[n+]2[O-])c1 [27-1, 4-Chloro-3-(3,5-dichloro-1-oxy-pyridin-2-yl)-N-(2-methoxy-phenyl)-N-methyl-benzamide]
≤ 100 nM	CN(C(=O)c1ccc(Cl)c(-c2cnc(C(F)(F)F)cc2C#N)c1)c1ccccc1OCCCc1nnn[nH]1 [28-1, 4-Chloro-3-(4-cyano-6-trifluoromethyl-pyridin-3-yl)-N-methyl-N-{2-[3-(1H-tetrazol-5-yl)-propoxy]-phenyl}-benzamide]
≤ 100 nM	Cc1c(F)cccc1N(C)C(=O)c1ccc(Cl)c(-n2c(C)cc(C(F)(F)F)nc2=O)c1 [30-7]
≤ 100 nM	Cc1cc(C(F)(F)F)nc(=O)n1-c1cc(C(=O)N(C)c2cc(F)ccc2Cl)ccc1Cl [30-9]
≤ 100 nM	COc1cccc(C)c1N(C)C(=O)c1ccc(Cl)c(-n2c(C)cc(C(F)(F)F)nc2=O)c1 [30-10]
≤ 100 nM	Cc1cccc(C)c1N(C)C(=O)c1ccc(Cl)c(-n2c(C)cc(C(F)(F)F)nc2=O)c1 [30-11]
≤ 100 nM	Cc1c(Cl)cccc1N(C)C(=O)c1ccc(Cl)c(-n2c(C)cc(C(F)(F)F)nc2=O)c1 [30-12]
≤ 100 nM	Cc1cc(C(F)(F)F)nc(=O)n1-c1cc(C(=O)N(C)c2cccc(F)c2F)ccc1Cl [30-13]
≤ 100 nM	Cc1cccc(N(C)C(=O)c2ccc(Cl)c(-n3c(C)cc(C(F)(F)F)nc3=O)c2)c1C [30-14]
≤ 100 nM	COc1ccccc1N(C)C(=O)c1ccc(Cl)c(-n2c(C)cc(C(F)(F)F)nc2=O)c1 [30-15]
≤ 100 nM	Cc1cc(C(F)(F)F)nc(=O)n1-c1cc(C(=O)N(C)c2ccccc2F)ccc1Cl [30-16]
≤ 100 nM	Cc1cc(C(F)(F)F)nc(=O)n1-c1cc(C(=O)N(C)c2cccc(F)c2)ccc1Cl [30-17]
≤ 100 nM	CN(C(=O)c1ccc(Cl)c(-c2cnc(C(F)(F)F)cc2C#N)c1)c1ccccc1OCCc1n[nH]c(=O)o1 [31-1, 4-Chloro-3-(4-cyano-6-trifluoromethyl-pyridin-3-yl)-N-methyl-N-{2-[2-(5-oxo-4,5-dihydro-[1,3,4]oxadiazol-2-yl)ethoxy]-phenyl}-benzamide]
≤ 100 nM	CN(C(=O)c1ccc(Cl)c(-c2nc3cccc(F)c3cc2C#N)c1)c1ccccc1OCCCC(=O)O [33-1, 4-(2-{[4-Chloro-3-(3-cyano-5-fluoro-quinolin-2-yl)-benzoyl]-methyl-amino}-phenoxy)-butyric acid]
≤ 100 nM	CN(C(=O)c1ccc(Cl)c(-c2nc3c(F)cccc3cc2C#N)c1)c1ccccc1OCCCC(=O)O [33-2]
